{"source": "patent EP2135611A1", "about": "“Pregn-5-en-20-yne-3,7,17-triol derivatives for use in therapy” (Hollis-Eden Pharmaceuticals Inc., priority 2001, dated 2002)", "key": {"[1]": {"test_system": "delayed type hypersensitivity (DTH)", "assay": "Delayed type hypersensitivity to oxazolone (ear thickness)", "assay_type": "in vivo, female BALB/cByJ mice", "details": "for differential ear thickness: 24 hours after oxazolone challenge, vehicle alone 0.225 mm"}, "[2]": {"test_system": "Experimental allergic encephalomyelitis (EAE)", "assay": "Experimental allergic encephalomyelitis induced with PLP-139-151 peptide/CFA", "assay_type": "in vivo, Female SJL mice", "details": "for onset of EAE: 3.0 mg s.c. daily for 33 days starting 7 days before peptide; for peak clinical score: reduced from 5.2 ± 0.6; for PLP-139-151 specific T cell proliferation responses: T cells from treated mice; for numbers of TNF-α producing cells in the CNS: treated mice", "protocol": "Example 50. Treatment of neurodegenerative conditions. Experimental allergic encephalomyelitis (EAE), is demyelinating disease of the central nervous system with many pathological and clinical similarities with multiple sclerosis (MS). EAE is thus a recognized animal model for human autoimmune conditions such as MS. Formula 1 compounds 16α-fluoroandrost-5-ene-17-one, 3β,7β,17β,-trihydroxyandrost-5-ene and 16α-bromoepiandrosterone were tested for their capacity to delay the onset of EAE or to reduce its symptoms. Female SJL mice (5 animals per group) were immunized with 150 to 200 µg of PLP-139-151 peptide/CFA to induce EAE. Starting 7 days before injection of the peptide, the animals were given daily injections (s.c.) of the compounds (3.0 mg) in 0.1 mL vehicle, or vehicle alone for 33 days. The vehicle consisted of a suspension of the formula 1 compound in saline and carboxymethylcellulose. […] A lower dose (0.3 mg/mouse) or other routes (p.o.) of administration had less effect. […] These compounds limited the production of autoimmune Th-1 associated cytokines, which is consistent with restoration of a more normal Th-1/Th-2 immune balance and/or with reduction of inflammation in this model."}, "Distal colitis [3]": {"test_system": "Distal colitis", "assay": "DNBS-induced distal colitis (inflammatory bowel disease model)", "assay_type": "in vivo, male Wistar rats", "details": "for Moderate acute inflammation, number of animals / Severe acute inflammation, number of animals: measured 7 days after DNBS challenge; for Moderate acute inflammation, number of animals / Severe acute inflammation, number of animals / Severe chronic inflammation, number of animals: groups of 10; for Severe chronic inflammation, number of animals: measured 14 days after DNBS challenge; for Adhesions between the colon and other organs / Colonic ulceration: observed at sacrifice day 7 or day 8, dosing as for each substance; for diarrhea: recorded daily, dosing as for each substance (AET: 2 mg)"}, "Distal colitis [4]": {"test_system": "Distal colitis", "assay": "TNBS-induced distal colitis", "assay_type": "in vivo, male Sprague Dawley rats", "details": "for frequency of moderate to severe lesions and their severity compared with negative control (vehicle) and reference control: based on occurrence at multiple colonic levels", "protocol": "In another protocol formula 1 compounds were used in a similar animal model. Groups of 10 male Sprague Dawley rats (250-300 grams) were fasted for 24 hours before 2,4,6-trinitrobenzene sulfonic acid (TNBS) or saline challenge. This model presents a severe challenge to the animal's immune system. On Day 0, the rats were lightly anesthetized and a catheter inserted rectally into the colon such that the tip was 8 cm proximal to the anus. Distal colitis was induced by intra-colonic instillation of 0.5 mL of an ethanolic solution of TNBS (60 mg/mL ethanol 50% in water). The test substance, 7-oxodehydroepiandrosterone 20 mg/mL in vehicle or vehicle control was administered by subcutaneous injection (0.1 mL/injection) once a day for 6 days, the first dose being given 30 minutes after TNBS challenge. Sulfasalazine (30 mg/mL in 2% Tween 80 in distilled water) or vehicle control was administered orally (PO) once a day (10mL/kg/day) for 7 days, the first two doses beginning 24 hours and 2 hours before DNBS challenge. Signs of diarrhea were recorded daily by examining the anal area. Animals were fasted for 24 hours prior to sacrifice on day 14 and the colon was removed and weighed. After gross observations of colonic tissues, 3 samples were taken from regions approximately 1, 3, and 8 cm proximal to the anus. If gross ulcers or inflammation were present, at least one sample was taken from the affected region. Before removal of the colon, signs of adhesion between the colon and other organs were recorded. […] Body weight, colon-to-body-weight ratio, and damage scores were assessed. Visible damage was scored on a 1-5 scale as follows: 0 = No damage; 1 = Localized hyperemia but no ulcers; 2= linear ulcers with no significant inflammation; 3 = Linear ulcers with inflammation at one site; 4 = Two or more sites of ulceration and/or inflammation; 5 = Two or more major sites of ulceration and inflammation or one major site of ulceration and inflammation extending more than 1 cm along the length of the colon. […]"}, "[5]": {"details": "day 7 (acute inflammation) after DNBS challenge"}, "[6]": {"details": "day 14 after DNBS challenge (chronic inflammation)"}, "[7]": {"details": "s.c. 20 mg/mL formulation once a day, first dose 30 minutes after DNBS, relative to vehicle-treated group / controls"}}, "data": [{"smiles": "C[C@@H]1C[C@H]2[C@@H]3CCC4=CC(=O)C=C[C@]4(C)[C@@]3(F)[C@@H](O)C[C@]2(C)[C@@]1(O)C(=O)CO", "note": "[dexamethasone, reference compound]", "values": [{"measurement": "differential ear thickness", "setting": "[1]", "value": 0.144, "unit": "mm"}]}, {"smiles": "O=P1(N(CCCl)CCCl)NCCCO1", "note": "(centres unmarked) [cyclophosphamide, reference compound]", "values": [{"measurement": "differential ear thickness", "setting": "[1]", "value": 0.092, "unit": "mm"}]}, {"smiles": "C[C@]12CCCCC1=CC[C@@H]1[C@@H]2CC[C@]2(C)C(=O)[C@H](F)C[C@@H]12", "note": "[16α-fluoroandrost-5-ene-17-one]", "values": [{"measurement": "reduction of cumulative disease index", "setting": "[2]; 3.0 mg s.c. daily for 33 days", "value": "> 60", "unit": "%"}, {"measurement": "relapses", "setting": "[2]; 3.0 mg s.c. daily for 33 days", "value": "prevented or significantly attenuated"}, {"measurement": "onset of EAE", "setting": "[2]", "value": "significantly delayed"}, {"measurement": "peak clinical score", "setting": "[2]; 3.0 mg s.c. daily for 33 days", "value": "2.8 ± 1.8"}, {"measurement": "PLP-139-151 specific T cell proliferation responses", "setting": "[2]", "value": "significantly reduced"}, {"measurement": "numbers of TNF-α producing cells in the CNS", "setting": "[2]", "value": "reduced numbers"}]}, {"smiles": "C[C@]12CC[C@H](O)C[C@@H]1CC[C@@H]1[C@@H]2CC[C@]2(C)C(=O)[C@H](Br)C[C@@H]12", "note": "[BrEA, 16α-bromo-3β-hydroxy-5α-androstane-17-one]", "values": [{"measurement": "effect on EAE", "setting": "[2]; 3.0 mg s.c. daily for 33 days", "value": "not significant"}, {"measurement": "decrease of net colon-to-body weight ratio", "setting": "Distal colitis [3]; s.c. 100 mg/mL formulation, relative to controls", "value": 21, "unit": "%"}, {"measurement": "frequency of moderate to severe lesions and their severity compared with negative control (vehicle) and reference control", "setting": "Distal colitis [4]", "value": "appeared to be similar"}]}, {"smiles": "O=C(O)c1cc(/N=N/c2ccc(S(=O)(=O)Nc3ccccn3)cc2)ccc1O", "note": "[sulfasalazine, reference compound]", "values": [{"measurement": "change in net colon-to-body weight (BW) ratio", "setting": "Distal colitis [3]; PO 30 mg/mL, 10 mL/kg/day once a day for 7 days, relative to EE-1 treated group", "value": -33, "unit": "%"}, {"measurement": "severe ulceration", "setting": "Distal colitis [3]; [5]", "value": "3 of 10"}, {"measurement": "severe ulceration", "setting": "Distal colitis [3]; [6]", "value": "4 of 10"}, {"measurement": "Moderate acute inflammation, number of animals", "setting": "Distal colitis [3]", "value": 6, "unit": "animals"}, {"measurement": "Severe acute inflammation, number of animals", "setting": "Distal colitis [3]", "value": 3, "unit": "animals"}, {"measurement": "Severe chronic inflammation, number of animals", "setting": "Distal colitis [3]", "value": 2, "unit": "animals"}, {"measurement": "Adhesions between the colon and other organs", "setting": "Distal colitis [3]", "value": "no animals"}, {"measurement": "Colonic ulceration", "setting": "Distal colitis [3]", "value": "no animals"}, {"measurement": "diarrhea", "setting": "Distal colitis [3]", "value": "all animals"}]}, {"smiles": "C[C@]12CC[C@H](O)CC1=CC(=O)[C@@H]1[C@@H]2CC[C@]2(C)C(=O)CC[C@@H]12", "note": "[7-oxodehydroepiandrosterone, 3β-hydroxyandrost-5-ene-7,17-dione]", "values": [{"measurement": "decrease of net colon-to-body weight ratio", "setting": "Distal colitis [3]; 0.1 mL s.c. of 2 mg/mL formulation once a day for 6 days, first dose 30 minutes after DNBS, relative to vehicle-treated group", "value": 19, "unit": "%"}, {"measurement": "Adhesions between the colon and other organs", "setting": "Distal colitis [3]", "value": "absent in all three tested animals"}, {"measurement": "Colonic ulceration", "setting": "Distal colitis [3]", "value": "1/3"}, {"measurement": "diarrhea", "setting": "Distal colitis [3]", "value": "All animals had diarrhea"}, {"measurement": "decrease of net colon-to-body weight ratio", "setting": "Distal colitis [3]; [7]", "value": 14, "unit": "%"}, {"measurement": "effect on inflammation (histopathological data)", "setting": "Distal colitis [4]; 20 mg/mL, 0.1 mL s.c. once a day for 6 days", "value": "exacerbated the inflammation"}]}, {"smiles": "C[C@]12CC[C@H]3[C@@H]([C@@H](O)C=C4C[C@@H](O)CC[C@@]43C)[C@@H]1CC[C@@H]2O", "note": "[AET, 3β,7β,17β-trihydroxyandrost-5-ene]", "values": [{"measurement": "reduction of cumulative disease index", "setting": "[2]; 3.0 mg s.c. daily for 33 days", "value": "> 60", "unit": "%"}, {"measurement": "relapses", "setting": "[2]; 3.0 mg s.c. daily for 33 days", "value": "prevented or significantly attenuated"}, {"measurement": "onset of EAE", "setting": "[2]", "value": "significantly delayed"}, {"measurement": "peak clinical score", "setting": "[2]; 3.0 mg s.c. daily for 33 days", "value": "2.8 ± 1.8"}, {"measurement": "PLP-139-151 specific T cell proliferation responses", "setting": "[2]", "value": "significantly reduced"}, {"measurement": "numbers of TNF-α producing cells in the CNS", "setting": "[2]", "value": "reduced numbers"}, {"measurement": "animals with colonic ulcerations relative to untreated animals", "setting": "Distal colitis [3]; 2 mg, N=9, pooled data from two studies", "value": 33, "unit": "%"}, {"measurement": "animals showing ulcers (chronic ulceration)", "setting": "Distal colitis [3]; 14 days after challenge, initiation of treatment delayed until 2 days after DNBS challenge", "value": "5 of 10"}, {"measurement": "severe ulceration", "setting": "Distal colitis [3]; [5]", "value": "2 of 10"}, {"measurement": "severe ulceration", "setting": "Distal colitis [3]; [6]", "value": "1 of 10"}, {"measurement": "net colon-to-body weight ratio, ulcers and diarrhea", "setting": "Distal colitis [3]; four subsequent studies", "value": "variably reduced"}, {"measurement": "Moderate acute inflammation, number of animals", "setting": "Distal colitis [3]", "value": 6, "unit": "animals"}, {"measurement": "Severe acute inflammation, number of animals", "setting": "Distal colitis [3]", "value": 4, "unit": "animals"}, {"measurement": "Severe chronic inflammation, number of animals", "setting": "Distal colitis [3]", "value": 3, "unit": "animals"}, {"measurement": "Adhesions between the colon and other organs", "setting": "Distal colitis [3]", "value": "absent"}, {"measurement": "diarrhea", "setting": "Distal colitis [3]", "value": "no diarrhea"}, {"measurement": "decrease of net colon-to-body weight ratio", "setting": "Distal colitis [3]; s.c. 0.2 mg/day for 5 or 6 days, first dose 30 minutes post-DNBS, relative to controls", "value": 15, "unit": "%"}, {"measurement": "decrease of net colon-to-body weight ratio", "setting": "Distal colitis [3]; s.c. 2.0 mg/day for 5 or 6 days, first dose 30 minutes post-DNBS, relative to controls", "value": 21, "unit": "%"}, {"measurement": "enhancement of the DTH response", "setting": "[1]; s.c. 2 mg/day daily for 8 days, first dose 24 hours before sensitization, last dose 24 hours prior to challenge", "value": 23, "unit": "%"}, {"measurement": "reduction in the DTH response", "setting": "[1]; s.c. 2 mg/day, administered 24 hours before challenge or at challenge", "value": "22-24%"}]}, {"smiles": "C[C@]12CC[C@H](O)CC1=CC[C@@H]1[C@@H]2CC[C@]2(C)C(=O)CC[C@@H]12", "note": "[dehydroepiandrosterone, reference compound]", "values": [{"measurement": "severe ulceration", "setting": "Distal colitis [3]; [5]", "value": "10 of 10"}, {"measurement": "severe ulceration", "setting": "Distal colitis [3]; [6]", "value": "0 of 10"}, {"measurement": "Moderate acute inflammation, number of animals", "setting": "Distal colitis [3]", "value": 0, "unit": "animals"}, {"measurement": "Severe acute inflammation, number of animals", "setting": "Distal colitis [3]", "value": 10, "unit": "animals"}, {"measurement": "Severe chronic inflammation, number of animals", "setting": "Distal colitis [3]", "value": 3, "unit": "animals"}, {"measurement": "decrease of net colon-to-body weight ratio", "setting": "Distal colitis [3]; [7]", "value": 3, "unit": "%"}, {"measurement": "frequency of moderate to severe lesions and their severity compared with negative control (vehicle) and reference control", "setting": "Distal colitis [4]", "value": "appeared to be similar"}]}]}
